# Experimental data reported in patent US20250346593A1, “IMIDAZO(1,2-1)PYRIDINE DERIVATIVES AS RIPK2 INHIBITORS” (Interline Therapeutics, Inc., priority 2022, published 2025).
# Where two headings read alike, the source gives them in different places.
# What was measured:
# [1] = test system: NF-κB pathway (SEAP) in THP1-Dual cells; assay: THP-1 Dual cell SEAP assay (L18-MDP stimulated); format: cell-based; settings: Homo sapiens, THP1-Dual, read-out: NFkB THP1 IC50
# [2] = molecular target: GST-RIPK2 fusion protein (human RIPK2 amino acids 1-310) (Homo sapiens (Human), UniProt O43353); assay: RIPK2 binding competition assay (TR-FRET, Tracer 199)
# [3] = read-out: RIPK2 IC50, RIPK2 binding competition assay
# Sequence of GST-RIPK2 fusion protein (human RIPK2 amino acids 1-310) (O43353 1-310): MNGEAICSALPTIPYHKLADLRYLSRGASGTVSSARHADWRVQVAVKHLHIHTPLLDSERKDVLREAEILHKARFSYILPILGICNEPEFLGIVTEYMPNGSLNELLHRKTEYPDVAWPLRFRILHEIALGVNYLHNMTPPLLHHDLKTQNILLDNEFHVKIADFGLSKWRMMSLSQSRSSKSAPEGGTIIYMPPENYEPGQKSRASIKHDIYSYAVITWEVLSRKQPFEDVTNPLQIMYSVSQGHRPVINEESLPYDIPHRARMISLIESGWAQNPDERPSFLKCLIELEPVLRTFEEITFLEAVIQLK
smiles,measurement,setting,value
"COc1cc2ncc(-c3cc(Cl)nc(NCCCO)c3)n2cc1S(=O)(=O)C(C)(C)C [Example 327, 3-((4-(6-(tert-butylsulfonyl)-7-methoxyimidazo[1,2-a]pyridin-3-yl)-6-chloropyridin-2-yl)amino)propan-1-ol]",IC50,[1],< 50 nM
same,IC50,[2],1 to 2.5 nM
"COc1cc2ncc(-c3cnc(N)c(F)c3F)n2cc1S(=O)(=O)C(C)(C)C [Example 164, 5-(6-(tert-butylsulfonyl)-7-methoxyimidazo[1,2-a]pyridin-3-yl)-3,4-difluoropyridin-2-amine]",IC50,[1],> 1000 nM
same,IC50,[2]; [3],> 20 nM
"COc1cc2ncc(-c3cnc(N)c(C(F)(F)F)c3)n2cc1S(=O)(=O)C(C)(C)C [Example 19, 5-(6-(tert-butylsulfonyl)-7-methoxyimidazo[1,2-a]pyridin-3-yl)-3-(trifluoromethyl)pyridin-2-amine]",IC50,[1],> 1000 nM
same,IC50,[2]; [3],> 20 nM
"COc1cc2ncc(-c3cc(F)c(OC)c(N4CC[C@@H](O)C4=O)c3)n2cc1S(=O)(=O)C(C)(C)C [Example 307, (R)-1-(5-(6-(tert-butylsulfonyl)-7-methoxyimidazo[1,2-a]pyridin-3-yl)-3-fluoro-2-methoxyphenyl)-3-hydroxypyrrolidin-2-one]",IC50,[1],> 1000 nM
same,IC50,[2]; [3],> 20 nM
"COc1cc2ncc(-c3cc(N)cc(F)c3)n2cc1S(=O)(=O)C(C)(C)C [Example 157, 3-(6-(tert-butylsulfonyl)-7-methoxyimidazo[1,2-a]pyridin-3-yl)-5-fluoroaniline]",IC50,[1],50 to 250 nM
same,IC50,[2],2.5 to 20 nM
"COc1cc(-c2cnc3cc(OC)c(S(=O)(=O)C(C)(C)C)cn23)cc(F)n1 [Example 302, 6-(tert-butylsulfonyl)-3-(2-fluoro-6-methoxypyridin-4-yl)-7-methoxyimidazo[1,2-a]pyridine]",IC50,[1],250 to 1000 nM
same,IC50,[2],2.5 to 20 nM
"COc1cc2ncc(-c3cc(F)nc(NCC4(CO)CC4)c3)n2cc1S(=O)(=O)C(C)(C)C [Example 201, (1-(((4-(6-(tert-butylsulfonyl)-7-methoxyimidazo[1,2-a]pyridin-3-yl)-6-fluoropyridin-2-yl)amino)methyl)cyclo-propyl)methanol]",IC50,[1],< 50 nM
same,IC50,[2],1 to 2.5 nM
"COc1cc2ncc(-c3cccc(S(C)(=O)=O)c3)n2cc1S(=O)(=O)C(C)(C)C [Example 151, 6-(tert-butylsulfonyl)-7-methoxy-3-(3-(methylsulfonyl)phenyl) imidazo[1,2-a]pyridine]",IC50,[1],> 1000 nM
same,IC50,[2]; [3],> 20 nM
"COc1cc2ncc(-c3cc(F)c(OC)c(N)c3F)n2cc1S(=O)(=O)C(C)(C)C [Example 52, 3-(6-(tert-butylsulfonyl)-7-methoxyimidazo[1,2-a]pyridin-3-yl)-2,5-difluoro-6-methoxyaniline]",IC50,[1],250 to 1000 nM
same,IC50,[2],2.5 to 20 nM
"CCCS(=O)(=O)Nc1cc(OC)cc(-c2cnc3cc(OC)c(S(=O)(=O)C(C)(C)C)cn23)c1 [Example 131, N-{3-methoxy-5-[7-methoxy-6-(2-methylpropane-2-sulfonyl)imidazo[1,2-a]pyridin-3-yl]phenyl}propane-1-sulfonamide]",IC50,[1],< 50 nM
same,IC50,[2]; [3],< 1 nM
"CCCS(=O)(=O)Nc1cc(COC)cc(-c2cnc3cc(OC)c(S(=O)(=O)C(C)(C)C)cn23)c1 [Example 289, N-(3-(6-(tert-butylsulfonyl)-7-methoxyimidazo[1,2-a]pyridin-3-yl)-5-(methoxymethyl)phenyl) propane-1-sulfonamide]",IC50,[1],250 to 1000 nM
same,IC50,[2],2.5 to 20 nM
"CCCS(=O)(=O)Nc1cc(-c2cnc3cc(OC)c(S(=O)(=O)C(C)(C)C)cn23)cc(F)c1F [Example 266, N-(5-(6-(tert-butylsulfonyl)-7-methoxyimidazo[1,2-a]pyridin-3-yl)-2,3-difluorophenyl)propane-1-sulfonamide]",IC50,[1],250 to 1000 nM
same,IC50,[2],1 to 2.5 nM
"COc1cc2ncc(-c3ccc(N)nc3F)n2cc1S(=O)(=O)C(C)(C)C [Example 14, 5-(6-(tert-butylsulfonyl)-7-methoxyimidazo[1,2-a]pyridin-3-yl)-6-fluoropyridin-2-amine]",IC50,[1],> 1000 nM
same,IC50,[2]; [3],> 20 nM
